From patent US20090111828A1, “L-ALANINE DERIVATIVES” (ASTRAZENECA AB, priority 2005, published 2009)

Assays:
[1] = biological target: T1, α5β1 integrin (Homo sapiens, UniProt P05556+P08648); test: In vitro binding assay: inhibition of binding of α5β1 integrin to fibronectin fragment Fn9-10 (Origen electrochemiluminescence); conditions: human a5b1 purified from placenta; biotinylated Fn9-10 ligand
Protocol: The assay determined the ability of compounds to inhibit binding of a5 μl integrin to a cognate ligand, a fragment of human fibronectin. The assay used Origen technology (IGEN International) to measure the compound activity. Briefly, (α5β1 integrin was coated onto epoxy-paramagnetic beads (Dynal Biotech UK, Bromborough, Wirral, CH62 3QL, UK, Catalogue No 143.02) and biotinylated-fibronectin ligand was coupled to strepatividin labelled BV-Tag-NHS-Ester (BioVeris Corporation, Witney, Oxfordshire, OX28 4GE, UK, Catalogue No JSF396). The ruthenium-labelled BV-Tag emits a electrochemiluminescence signal upon stimulation which is detected by the Origen reader. Thus, interaction of integrin and ligand causes association of bead and tag and the resulting electrochemiluminescence signal reflects the level of integrin interaction with fibronectin.
12 μg of human a5 μl purified from placenta (Chemicon, Chandlers Ford, Hampshire, SO53 4NF, UK, Catalogue No CC1055-K) was coated onto surface-activated 3 mg of epoxy-paramagnetic beads in PBS and 1M ammonium sulfate following manufacturers instructions at 4° C. for 24 hours. Coated beads were then washed into Assay Buffer (25 mM Hepes, 150 mM NaCl, 1 mM MgCl, 1 mM MnCl, 0.1% Tween, pH7.4) to give a final concentration of 20 μg of α5β1/ml. Immediately prior to the assay, the beads were further diluted ×40 fold in Assay Buffer to give a concentration of 0.5 μg α5β1/ml.
A DNA fragment encoding the domains 9-10 (amino-acids 1325-1509) of human fibronectin (Swiss-Prot Acession No. P02751) was isolated from cDNA libraries using standard molecular biology and PCR cloning techniques. The cDNA fragment was sub-cloned into a pT73.3 expression vector containing a GST-epitope tag (developed at AstraZeneca; Bagnall et al., Protein Expression and Purification, 2003, 27: 1-11). Following expression in E. coli, the expressed protein, termed Fn9-10, was purified using the GST-tag using standard purification techniques. The recombinant Fn9-10 was subsequently biotinylated using a EZ-link Sulfo-NHS-LC-Biotinylation kit (Perbio Science UK Ltd., Cramlington, Northumberland, NE23 1WA, UK, Catalogue No. 21335) and made to give a final concentration of approximately 1 mg/ml. BV-Tag-NHS-Ester was labelled with streptavidin by incubation at room temperature following manufacturers instructions and buffer-exchanged into PBS to give a concentration of 0.5 mg/ml. […]
For the assay, […] of a5b1-bead suspension and 40 μl of the Fn9-10/BV-Tag preincubated solution were added to each well containing 20 μl of compound or control solution. Assay plates were then incubated at room temperature for a minimum of 6 hours before being analysed on the Origen plate reader. […]

[2] = biological target: T1, α5β1 integrin; test: In vitro cell adhesion assay: α5β1 integrin mediated adhesion of K562 cells to fibronectin fragment Fn9-10; type: cell-based; design: α5β1 integrin mediated adhesion of K562 cells; host or cells: K562 human erythroleukaemia cells; conditions: K562 cells on Fn9-10 coated plates; 0.2 mM MnCl; read-out: b) Cell Adhesion Assay
From the text: The assay determined the ability of compounds to inhibit the α5β1 integrin mediated adhesion of K562 cells to the ligand, a fragment of human fibronectin. The human K562 erythroleukaemia cell line (LGC Promochem, Teddington, Middlesex, UK, Catalogue No. CCL-243) was routinely maintained in RPMI 1640 medium (Sigma-Aldrich Company Ltd, Gillingham, Dorset SP8 4XT, Catalogue No. R0883) containing 10% heat-inactivated foetal calf serum (PAA lab GmbH, Pasching, Austria Catalogue No. PAA-A15-043) and 1% glutamax-1 (Invitrogen Ltd. Paisley, UK Catalogue No. 35050-038) at 37° C. with 5% CO2 at densities between 1×10^5 and 1×10^6 cells/ml.
A DNA fragment encoding the domains 9-10 (amino-acids 1325-1509) of human fibronectin (Swiss-Prot Acession No. P02751) was isolated from cDNA libraries using standard molecular biology and PCR cloning techniques. The cDNA fragment was sub-cloned into a pT7#3.3 expression vector containing a GST-epitope tag (developed at AstraZeneca; Bagnall et al., Protein Expression and Purification, 2003, 27: 1-11) and the fragment termed Fn9-10. Following expression in E. coli, the expressed protein was purified using the GST-tag using standard purification techniques.
For adhesion assay, a 96-well flat bottomed plate (Greiner Bio one ltd., Gloucester GL10 3SX Catalogue No. 655101) was coated overnight at 4° C. with 100 μl of 20 μg/ml Fn9-10 ligand in Dulbecco's PBS (Gibco#14190-94). The plate was then washed twice with 200 μl of PBS and blocked with 100 μl of 3% BSA (SigmaA7888) in PBS for 1 hour at 37° C. The plates were then washed again 3 times with 200 μl of PBS and left empty.
Test compounds were prepared as 10 mM stock solutions in DMSO (Sigma-Aldrich Company Ltd, Gillingham, Dorset SP8 4XT Catalogue No. 154938) and serially diluted with HBSS (Hanks Buffered Salt solution (Gibco Catalogue No. 14170-088)/2% DMSO to give a range of test concentrations at twice required final concentration. Aliquots (50 μl) of each compound dilution were placed into each well of the Fn9-10 coated plates. Each plate also contained control wells: maximum adhesion signal was created using wells containing 50 μl HBSS/2% DMSO and minimum signal corresponding to no adhesion was created using wells containing 50 μl HBSS/2% DMSO/20 mM EDTA (Sigma Catalogue No. E7889).
The K562 cells were cultured to ˜1×10^6 cells/ml and each culture suspension pooled. Cells were centrifuged at 1200 rpm for 2 mins and the pellets washed with HBSS followed by HBSS/50 mM HEPES (Sigma Catalogue No. H0887). Cell pellets were pooled and resuspended in HBSS/0.4 mM manganese chloride/50 mM HEPES (MnCl; Sigma Catalogue No. M1787) to give a final concentration of 4×10^6 cells/ml.
The assay was initiated by the addition of 50 μl of cell suspension into each coated well (200,000 cells/well), thus resulting in final desired compound concentration and a final MnCl concentration of 0.2 mM. The plates were incubated for 45 minutes at 37° C. 5% CO2. After this time, the solution was flicked off as waste and the remaining cell layer carefully washed twice with 200 μl of PBS and then fixed with 200 μl of 100% ethanol for 30 minutes.
After fixation, the ethanol was flicked off to waste and 100 μl of 0.1% Crystal violet stain was added to each well and incubated at ambient temperature for 15 minutes. Excess stain was removed by rinsing ˜3 times under cold slow running water. The plates were blotted over tissue then solubilised by adding 50 μl of 1% Triton X100 (Sigma Catalogue No. T9284) and shaking at 500 rpm for 30 mins on plate shaker. Finally, 100 μl of deionised water was added to each well and the absorbance was determined at 590 nm on a spectrophotometer. The minimum value was subtracted from all values and the absorbance signal was plotted against compound concentration to generate IC50 data.

T1 sequence (P08648 42-894 limits assumed): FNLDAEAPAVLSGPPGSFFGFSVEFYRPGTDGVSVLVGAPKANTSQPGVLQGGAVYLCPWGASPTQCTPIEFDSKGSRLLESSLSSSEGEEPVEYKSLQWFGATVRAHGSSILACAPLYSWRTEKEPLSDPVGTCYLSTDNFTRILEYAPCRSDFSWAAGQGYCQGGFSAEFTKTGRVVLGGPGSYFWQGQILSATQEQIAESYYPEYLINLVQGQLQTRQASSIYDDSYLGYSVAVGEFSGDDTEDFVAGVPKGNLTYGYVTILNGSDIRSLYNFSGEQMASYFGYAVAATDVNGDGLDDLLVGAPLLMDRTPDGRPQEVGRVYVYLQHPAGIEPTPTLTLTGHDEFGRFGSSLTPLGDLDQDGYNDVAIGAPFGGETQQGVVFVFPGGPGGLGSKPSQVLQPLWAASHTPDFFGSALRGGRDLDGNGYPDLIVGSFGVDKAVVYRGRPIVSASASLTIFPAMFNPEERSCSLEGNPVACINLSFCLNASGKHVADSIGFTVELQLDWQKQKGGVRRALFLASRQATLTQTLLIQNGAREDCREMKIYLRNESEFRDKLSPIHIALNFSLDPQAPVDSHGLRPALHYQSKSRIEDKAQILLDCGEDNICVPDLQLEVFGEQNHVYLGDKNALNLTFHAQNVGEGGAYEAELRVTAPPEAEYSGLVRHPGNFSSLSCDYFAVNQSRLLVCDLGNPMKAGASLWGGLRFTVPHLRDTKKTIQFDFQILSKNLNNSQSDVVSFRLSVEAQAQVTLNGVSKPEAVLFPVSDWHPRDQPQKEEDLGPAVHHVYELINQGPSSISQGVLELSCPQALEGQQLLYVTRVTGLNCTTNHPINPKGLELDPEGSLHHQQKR
T1 sequence (P08648 895-1049 partner limits assumed): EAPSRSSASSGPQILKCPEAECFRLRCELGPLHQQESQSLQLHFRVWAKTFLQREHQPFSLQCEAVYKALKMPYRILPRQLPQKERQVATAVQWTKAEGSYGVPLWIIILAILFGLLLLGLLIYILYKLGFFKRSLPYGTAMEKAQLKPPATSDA
T1 sequence (P05556 21-798): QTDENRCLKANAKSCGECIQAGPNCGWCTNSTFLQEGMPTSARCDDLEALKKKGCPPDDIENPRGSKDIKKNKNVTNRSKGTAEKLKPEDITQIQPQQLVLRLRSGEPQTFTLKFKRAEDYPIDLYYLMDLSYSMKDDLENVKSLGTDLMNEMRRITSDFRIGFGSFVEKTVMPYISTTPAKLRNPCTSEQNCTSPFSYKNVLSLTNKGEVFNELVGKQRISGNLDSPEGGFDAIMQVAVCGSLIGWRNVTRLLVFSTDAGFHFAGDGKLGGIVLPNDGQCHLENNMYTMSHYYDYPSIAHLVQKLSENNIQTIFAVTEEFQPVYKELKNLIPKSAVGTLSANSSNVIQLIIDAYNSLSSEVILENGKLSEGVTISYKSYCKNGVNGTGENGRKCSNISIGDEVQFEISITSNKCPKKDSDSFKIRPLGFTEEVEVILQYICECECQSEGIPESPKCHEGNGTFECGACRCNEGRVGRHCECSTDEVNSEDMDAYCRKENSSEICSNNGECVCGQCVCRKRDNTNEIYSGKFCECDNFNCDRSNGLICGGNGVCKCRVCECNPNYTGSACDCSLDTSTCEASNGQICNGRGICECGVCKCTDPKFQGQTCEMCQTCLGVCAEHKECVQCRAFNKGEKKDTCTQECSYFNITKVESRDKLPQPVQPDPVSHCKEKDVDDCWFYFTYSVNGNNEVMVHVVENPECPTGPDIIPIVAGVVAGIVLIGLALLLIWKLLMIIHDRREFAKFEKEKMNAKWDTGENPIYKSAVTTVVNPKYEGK

Row | Compound | IC50 [1] [µM] | IC50 [2] [µM]
1 | CC(=O)NCC(=O)N1CC=C(c2ccc(C[C@H](NC(=O)c3c(Cl)cccc3Cl)C(=O)O)nc2)CC1 [3-[1′-(N-acetylglycyl)-1′,2′,3′,6′-tetrahydro-3,4′-bipyridin-6-yl]-N-(2,6-dichlorobenzoyl)-L-alanine] |  | ≥ 100
2 | O=C(N[C@@H](Cc1ccc(N2CCN(S(=O)(=O)c3ccccc3)CC2)cn1)C(=O)O)c1c(Cl)cccc1Cl [N-(2,6-dichlorobenzoyl)-3-{5-[4-(phenylsulfonyl)piperazin-1-yl]pyridin-2-yl}-L-alanine] |  | ≥ 100
3 | O=C(N[C@@H](Cc1ccc(C2=CCN(C(=O)c3cccc(F)c3)CC2)cn1)C(=O)O)c1c(Cl)cccc1Cl | 7.2 | 48
4 | CS(=O)(=O)N1CC=C(c2ccc(C[C@H](NC(=O)c3c(Cl)cccc3Cl)C(=O)O)nc2)CC1 | 24.7 | 70.5

The next compounds have a lower IC50 [2] than those just listed; values first:

Row | IC50 [1] [µM] | IC50 [2] [µM] | Compound
5 | 6 | 13.2 | O=C(N[C@@H](Cc1ccc(C2=CCN(Cc3ccc(F)cc3)CC2)cn1)C(=O)O)c1c(Cl)cccc1Cl
6 | 13.9 | 7 | CCCS(=O)(=O)N1CC=C(c2ccc(C[C@H](NC(=O)c3c(Cl)cccc3Cl)C(=O)O)nc2)CC1
